Source: ChEMBL document CHEMBL4834485, “Designed, synthesized and biological evaluation of proteolysis targeting chimeras (PROTACs) as AR degraders for prostate cancer treatment” (Bioorg Med Chem, 2021)
Calls of active or inactive are those of the source. The rule behind the calls is not given here.

How the values were obtained:
[1] = target: T1, Protein cereblon/Androgen receptor (Homo sapiens) (UniProt P10275+Q96SW2); test: PROTAC activity at CRBN/AR in human LNCaP cells assessed as induction of AR degradation by measuring downregulation of AR protein expression at 30 uM measured after 24 hrs by western blot assay; type: cell-based
[2] = target: T1, Protein cereblon/Androgen receptor (Homo sapiens); test: PROTAC activity at CRBN/AR in human LNCaP cells assessed as induction of AR degradation by measuring downregulation of AR protein expression measured after 24 hrs by western blot assay; type: cell-based; conditions: dose 10-30 µM
[3] = Drug uptake in AR-positive human LNCaP cells assessed as increase in fluorescence intensity at 10 uM incubated for 24 hrs by DAPI staining based confocal laser scanning microscopy; type: ADME
[4] = Drug uptake in AR-negative human PC-3 cells assessed as increase in fluorescence intensity at 10 uM incubated for 24 hrs by DAPI staining based confocal laser scanning microscopy; type: ADME, cell-based; conditions: pc-3, 24 h

T1 sequence (P10275 whole entry, looked up): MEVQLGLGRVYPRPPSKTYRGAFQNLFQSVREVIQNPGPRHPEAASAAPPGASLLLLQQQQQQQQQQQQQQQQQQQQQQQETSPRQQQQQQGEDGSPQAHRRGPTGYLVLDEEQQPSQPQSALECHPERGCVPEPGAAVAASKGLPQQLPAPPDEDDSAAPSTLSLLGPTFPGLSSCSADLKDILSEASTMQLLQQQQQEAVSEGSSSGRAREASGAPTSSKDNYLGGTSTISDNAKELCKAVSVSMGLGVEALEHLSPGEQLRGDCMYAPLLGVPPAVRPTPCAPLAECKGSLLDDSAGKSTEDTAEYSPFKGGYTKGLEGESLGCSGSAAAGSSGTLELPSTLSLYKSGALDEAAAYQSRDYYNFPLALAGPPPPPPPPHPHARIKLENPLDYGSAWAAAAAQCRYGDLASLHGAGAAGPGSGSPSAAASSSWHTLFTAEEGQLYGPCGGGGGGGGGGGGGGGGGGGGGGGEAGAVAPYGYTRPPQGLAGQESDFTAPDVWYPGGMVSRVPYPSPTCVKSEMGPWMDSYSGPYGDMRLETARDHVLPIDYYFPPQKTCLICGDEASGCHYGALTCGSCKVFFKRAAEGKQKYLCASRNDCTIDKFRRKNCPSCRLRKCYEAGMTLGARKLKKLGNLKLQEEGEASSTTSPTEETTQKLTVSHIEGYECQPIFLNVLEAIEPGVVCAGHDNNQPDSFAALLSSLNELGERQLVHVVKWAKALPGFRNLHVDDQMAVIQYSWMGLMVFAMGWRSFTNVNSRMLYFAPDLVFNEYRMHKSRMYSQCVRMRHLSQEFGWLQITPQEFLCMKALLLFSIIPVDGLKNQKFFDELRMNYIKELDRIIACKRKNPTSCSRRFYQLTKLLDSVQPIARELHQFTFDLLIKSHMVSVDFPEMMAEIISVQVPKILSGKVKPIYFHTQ
T1 sequence (Q96SW2 whole entry, looked up): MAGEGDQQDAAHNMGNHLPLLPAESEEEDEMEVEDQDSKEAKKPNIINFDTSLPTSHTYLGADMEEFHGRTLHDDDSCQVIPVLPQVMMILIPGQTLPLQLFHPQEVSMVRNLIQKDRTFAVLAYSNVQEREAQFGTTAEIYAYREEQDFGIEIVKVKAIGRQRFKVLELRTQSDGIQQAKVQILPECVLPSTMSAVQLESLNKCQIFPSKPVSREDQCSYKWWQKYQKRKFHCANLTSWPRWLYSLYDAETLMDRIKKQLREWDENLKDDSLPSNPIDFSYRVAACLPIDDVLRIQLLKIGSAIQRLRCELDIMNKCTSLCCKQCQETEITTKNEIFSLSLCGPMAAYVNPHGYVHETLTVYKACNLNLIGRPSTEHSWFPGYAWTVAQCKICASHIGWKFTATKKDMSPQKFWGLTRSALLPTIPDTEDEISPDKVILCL

Row | Activity [1] | Activity [2] | Drug uptake [3] | Drug uptake [4] | Structure (SMILES)
1 | Active | Dose-Dependent Effect |  |  | CC1(C)C(=O)N(c2ccc(C#N)c(C(F)(F)F)c2)C(=S)N1CCCn1cc(COCCOCCOc2cccc3c2C(=O)N(C2CCC(=O)NC2=O)C3=O)nn1 (centres undefined)
2 |  |  | Active | Active | Nc1cccc2c1C(=O)N(C1CCC(=O)NC1=O)C2=O (centres undefined) [POMALIDOMIDE]
